Among the data in PubChem BioAssay (NCI) are TGI and GI50 values, retold here.

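How tested: cells in 96-well plates exposed to compound for 48 hours at five concentrations. Here, GI50 denotes the concentration required for 50% inhibition of growth. TGI denotes the concentration required for complete inhibition of growth.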

Among the test systems are M14 melanoma; SK-MEL-2 melanoma; NCI-H522 lung; HOP-62 NSCLC; A498 renal; OVCAR-8 ovarian; HT29 colon; U251 CNS; NCI-H23 lung; RPMI-8226 leukemia.
Holding throughout (assay): inhibition of tumour cell growth, NCI panel, 48 h

As to `CCCOc1ccc(/C=C/c2cc(OC)c(OC)c(OC)c2)cc1`, the TGI in the test on M14 melanoma is above 100 µM; with SK-MEL-2 melanoma it was above 100 µM; with NCI-H522 lung it was 0.478 µM; with HOP-62 NSCLC, above 100 µM; in the test with A498 renal it was above 22.6 µM; in the test with OVCAR-8 ovarian it was 22.3 µM. Further, the TGI is 3.93 µM in the test with HT29 colon, above 29.6 µM with U251 CNS, 0.706 µM in the test with NCI-H23 lung and 28.4 µM in the test with RPMI-8226 leukemia. In the test on HOP-62 NSCLC, the GI50 is 0.32 µM.
On to `Nc1cc(N)c2nc(-c3ccccc3)c(Nc3ccc(F)cc3)nc2c1`, for which the GI50 was 16.3 µM with M14 melanoma; 29.8 µM with SK-MEL-2 melanoma; above 100 µM with NCI-H522 lung; 37.8 µM in the test on HOP-62 NSCLC; 17.4 µM in the test on A498 renal; 12.4 µM in the test on OVCAR-8 ovarian. For the same compound, the GI50 in the test with HT29 colon is 18.6 µM; in the test with U251 CNS, 5.65 µM; in the test on NCI-H23 lung it was 22.5 µM; with RPMI-8226 leukemia it was 4.64 µM. Also, the TGI was 43.3 µM with M14 melanoma; above 100 µM in the test on SK-MEL-2 melanoma; above 100 µM in the test on NCI-H522 lung; above 100 µM with HOP-62 NSCLC; 33.8 µM with A498 renal; 30.3 µM in the test on OVCAR-8 ovarian. The TGI in the test with HT29 colon was 35.3 µM; in the test on U251 CNS, 20 µM; with NCI-H23 lung it was 49.1 µM; in the test with RPMI-8226 leukemia, 34.6 µM.
Turning to `Cc1ccc(NC(=O)c2ccnc(C(F)(F)F)c2)cc1-c1cc(OCCO)nc(N2CCOCC2)c1`, the GI50 with M14 melanoma is 0.63 µM; in the test on SK-MEL-2 melanoma, 0.192 µM; in the test on NCI-H522 lung it was 1.55 µM; in the test on HOP-62 NSCLC, 1.28 µM; in the test with A498 renal it was 1.06 µM; with OVCAR-8 ovarian, 4.08 µM. In addition, the GI50 with HT29 colon was 0.413 µM; in the test with U251 CNS it was 4.7 µM; with NCI-H23 lung, 0.916 µM; in the test on RPMI-8226 leukemia, 2.7 µM. The TGI in the test on M14 melanoma was 5.25 µM; in the test on SK-MEL-2 melanoma it was 3.44 µM; in the test with NCI-H522 lung it was 17.2 µM; with HOP-62 NSCLC, 34.5 µM; in the test on A498 renal, 3.74 µM; in the test on OVCAR-8 ovarian, above 100 µM. Further, the TGI with HT29 colon was 14.8 µM; in the test on U251 CNS it was 28.8 µM; with NCI-H23 lung, 12.5 µM; in the test on RPMI-8226 leukemia, above 100 µM.
As for `O=[N+]([O-])c1cccc(-c2nc3sccn3c2-c2ccnc(NCCCNS(=O)(=O)c3ccc(F)cc3)n2)c1`, the GI50 in the test with M14 melanoma was 2.72 µM; in the test with SK-MEL-2 melanoma it was 2.06 µM; in the test with NCI-H522 lung, 1.59 µM; in the test with HOP-62 NSCLC, 3.16 µM; in the test with A498 renal, 1.87 µM; in the test with OVCAR-8 ovarian, 1.74 µM. The GI50 was 2.9 µM with HT29 colon, 3.73 µM in the test on U251 CNS, 2.42 µM with NCI-H23 lung and 0.677 µM in the test on RPMI-8226 leukemia. In addition, the TGI in the test on M14 melanoma was above 100 µM; in the test with SK-MEL-2 melanoma, 5.43 µM; in the test on NCI-H522 lung, 6.02 µM; in the test on HOP-62 NSCLC, 9.61 µM; with A498 renal it was above 100 µM; with OVCAR-8 ovarian it was 22.2 µM. The TGI in the test with HT29 colon was above 100 µM; with U251 CNS it was above 100 µM; with NCI-H23 lung, 9.16 µM; with RPMI-8226 leukemia, 2.94 µM.
Take `O=C(O)CC(Cc1ccc2c(c1)OCO2)C(=O)O` (stereo unspecified): the TGI with M14 melanoma, in the test with SK-MEL-2 melanoma, in the test on NCI-H522 lung, in the test with HOP-62 NSCLC, in the test on A498 renal and with OVCAR-8 ovarian was above 100 µM throughout. The TGI with HT29 colon, in the test on U251 CNS, in the test with NCI-H23 lung and with RPMI-8226 leukemia was above 100 µM each time.
On to `COC(=O)c1c2c(c(C)[n+]([O-])c1C)C(=O)C=C(NCc1ccc(Cl)cc1)C2=O`, for which the GI50 is 0.202 µM in the test with M14 melanoma; 1.05 µM in the test with SK-MEL-2 melanoma; 0.508 µM with NCI-H522 lung; 1.15 µM with HOP-62 NSCLC; 1.21 µM in the test with A498 renal; 0.296 µM with OVCAR-8 ovarian. For the same compound, the GI50 was 0.271 µM in the test with HT29 colon, 0.598 µM with U251 CNS, 0.572 µM with NCI-H23 lung and 1.24 µM in the test with RPMI-8226 leukemia. Further, the TGI came to 1.68 µM in the test on M14 melanoma; 2.73 µM in the test with SK-MEL-2 melanoma; 2.04 µM in the test on NCI-H522 lung; 3.46 µM with HOP-62 NSCLC; 2.47 µM in the test with A498 renal; 1.44 µM in the test with OVCAR-8 ovarian. The TGI in the test on HT29 colon was above 26.6 µM; in the test with U251 CNS it was 1.88 µM; with NCI-H23 lung, 2.9 µM; in the test with RPMI-8226 leukemia, 4.7 µM.
Turning to `Nc1nc(-n2cccn2)nc(-n2cccn2)c1Br`, the GI50 in the test with M14 melanoma was above 100 µM; in the test with SK-MEL-2 melanoma, above 100 µM; in the test on NCI-H522 lung it was above 100 µM; with HOP-62 NSCLC, above 100 µM; in the test with A498 renal, 9.7 µM; in the test with OVCAR-8 ovarian, above 100 µM. The GI50 with HT29 colon, with U251 CNS, in the test with NCI-H23 lung and with RPMI-8226 leukemia was above 100 µM each time. Besides, the TGI is above 100 µM in the test on M14 melanoma; above 100 µM in the test with SK-MEL-2 melanoma; above 100 µM in the test with NCI-H522 lung; above 100 µM in the test with HOP-62 NSCLC; 92.6 µM in the test on A498 renal; above 100 µM in the test with OVCAR-8 ovarian. For the same compound, the TGI in the test with HT29 colon, with U251 CNS, with NCI-H23 lung and with RPMI-8226 leukemia was above 100 µM in each case.
Turning to `CC[C@@]1(O)C(=O)NCc2c1cc1n(c2=O)Cc2cc3cc4c(cc3nc2-1)OCO4`, the GI50 in the test on M14 melanoma was 0.441 µM; with SK-MEL-2 melanoma, 67.5 µM; in the test with NCI-H522 lung it was 0.517 µM; with HOP-62 NSCLC it was 0.235 µM; in the test on A498 renal, 0.963 µM; with OVCAR-8 ovarian, 0.391 µM. The GI50 in the test on HT29 colon was 2.02 µM; with U251 CNS it was 0.408 µM; in the test with NCI-H23 lung, 0.798 µM; in the test on RPMI-8226 leukemia it was 0.293 µM. The TGI in the test on M14 melanoma is above 39.2 µM; in the test on SK-MEL-2 melanoma, above 100 µM; in the test on NCI-H522 lung, 54.6 µM; in the test on HOP-62 NSCLC, 20.4 µM; with A498 renal it was 8.73 µM; with OVCAR-8 ovarian, 6.99 µM. For the same compound, the TGI in the test on HT29 colon is 37.3 µM; in the test with U251 CNS, 12.9 µM; in the test with NCI-H23 lung, above 13.2 µM; in the test with RPMI-8226 leukemia it was 9.02 µM.
